# According to patent US4795639A, “Potentiating formulations” (priority 1971, dated 1989):
# Where “and” joins values, the source holds several entries; their conditions need not be identical. Identical values can stand only once.
# Experiments:
# Pasteurella multocida = Pasteurella multocida infection in chicks; assay type: in vivo; settings: for Cumulative Mortality on day 1: groups of 10 chicks, 15:85 TMP SQX p.p.m / DMHP p.p.m: b654 25/20, b655 25/10, b656 25/5, b657 12.5/20, b658 12.5/10, b659 12.5/5, b660 50/-, b661 25/-, b662 12.5/-, b665 TMP 15, b666 TMP 30, b667 SQX 85, b669 SQX 42.5
# E. tenella = test: coccidiosis screening test in chicks, E. tenella; assay type: in vivo, Eimeria tenella; settings: Expt. 4; 100,000 oocysts; p.p.m SQX/DV/DMHP: b374 10/-/-; b375 -/20/-; b376 -/-/10; b377 10/-/10; b378 -/20/10; b379 10/20/-; b381 10/20/10; b382 20/-/-; b383 -/40/-; b384 -/-/20; b385 20/-/20; b386 -/40/20; b387 20/40/-; b389 20/40/20
# Protocol: "Screening tests" were performed to establish the effectiveness of the compounds of formula (I) both alone and in combination with a competitor and or an inhibitor and to determine the most useful levels of relative concentrations of each component in combatting or suppressing coccidiosis.
# Groups of Ranger cockerels, housed in small, heated cages with wire floors situated in enironmentally controlled isolation rooms, were infected orally with sporulated oocysts of the Eimeria spp such as E. tenella or E. acervulina. The appropriate test compound(s), (DMHP, sulphaquinoxaline (SQX) or diaveridine (DV) or any combination of these) were incorporated in a small quantity of specially formulated laboratory ration deficient in Vitamin K (`L.D.4 mash`), as a 1/10 pre-mix, which was then mixed into the diet on a horizontal roller drum mixed and administered to groups of chicks one day prior to infection, leaving some groups as untreated controls. Administration was continued for several days, for example about 8 or 9 days.
# The amount of damage, marked by lesions in the caecal walls was investigated in those chicks that died during the course of the experiment, and in those sacrificed on the final day of administration, and compared with the untreated controls as a basis for the determination of therapeutic activity. In addition the mortality rate and the percentage weight gains in the various groups were assessed. A marked or definite effect of the administered drug could be recognised even when the mortality rates were similar or identical, since the increase in the weight gains and the reduction of the extension of lesions indicated by the lesion score, is characteristic of an improvement. […]
# 4:1 sulphaquinoxaline/diaveridine mixtures at levels of 80/20, 60/15, 40/10 and 20/5 p.p.m. were administered alone and in combination with a wide range of low concentrations of DMHP to the birds.
# The results of these screening tests are set forth in Table 4 showing the concentration of the various component compounds in parts per million of the bird's diet, the mortality from coccidiosis, the percentage weight gain, the lesion score the oocyst output, and the activity. The caecal lesion index is calculated using a score system where: […]
# In addition a score of 4 is assigned to any bird that dies of coccidiosis during the experiment. [formula] In the activity column, +++, ++, +, ± and - relate respectively to very high, high, slight, doubtful and nil activity of the test drug against the Eimeria infection.
# [1] = test system: Streptococcus faecalis CN 478; test: testing discs on standard nutrient medium; assay type: cell-based; settings: per 6 mm filterpaper disc: TMP 1.25 μg, SMX 23.75 μg, DMHP 100 μg, as in label
# [2] = test system: Staphylococcus aureus N 491; test: growth rate inhibition, turbidometric, Wellcome Nutrient Broth; assay type: cell-based
# Escherichia coli CN 314 = test: testing discs on standard nutrient medium; assay type: cell-based; settings: per 6 mm filterpaper disc: TMP 1.25 μg, SMX 23.75 μg, DMHP 100 μg, as in label
# Staphylococcus aureus [3] = test: M.I.C. in Wellcome Nutrient Agar, 18 hours at 37° C.; assay type: cell-based; settings: DMHP Nil
# Proteus vulgaris CN 329 = test: testing discs on standard nutrient medium; assay type: cell-based; settings: per 6 mm filterpaper disc: TMP 1.25 μg, SMX 23.75 μg, DMHP 100 μg, as in label
# [4] = test system: Pseudomonas aeruginosa CN 200; test: testing discs on standard nutrient medium; assay type: cell-based; settings: per 6 mm filterpaper disc: TMP 1.25 μg, SMX 23.75 μg, DMHP 100 μg, as in label
# [5] = test system: Staphylococcus aureus CN 491; test: testing discs on standard nutrient medium; assay type: cell-based; settings: per 6 mm filterpaper disc: TMP 1.25 μg, SMX 23.75 μg, DMHP 100 μg, as in label
# Staphylococcus aureus [6] = test: microbe, parasite or virus in culture; settings: for Percentage of inoculum viable at 24 hrs.: DMHP Nil, Test 2
# Protocol: The results are shown in Table 9 in which the bactericidal activity is expressed as the percentage of the original inoculum, measured by viable counts, which was alive after 24-hours' incubation at 37° C. The inoculum used gave a final concentration of 10^6 organisms per ml.
# [7] = Staphylococcus aureus, N491, 7 h, read-out: Percentage of inhibition at 7 hrs.
# [8] = Table 6, doses as in E56, listed as TMP
# [9] = Staphylococcus aureus, 24 h, read-out: Percentage of inoculum viable at 24 hrs.
compound,measurement,setting,value
"Nc1ccc(S(=O)(=O)Nc2cnc3ccccc3n2)cc1 [SQX, sulphaquinoxaline]",activity alone against Pasteurella multocida,Pasteurella multocida; Example 3 Experiment 1,good activity alone
same,Average Weight of surviving chicks,"Pasteurella multocida; Table 5, doses as in E44",259.5 gm and 234.0 gm
same,Cumulative Mortality on day 5,"Pasteurella multocida; Table 5, doses as in E44",1
same,Cumulative Mortality on day 6,"Pasteurella multocida; Table 5, doses as in E44",1
same,Cumulative Mortality on day 7,"Pasteurella multocida; Table 5, doses as in E44",1
same,Cumulative Mortality on day 8,"Pasteurella multocida; Table 5, doses as in E44",1
same,Cumulative Mortality on day 9,"Pasteurella multocida; Table 5, doses as in E44",1
same,Cumulative Mortality on day 10,"Pasteurella multocida; Table 5, doses as in E44",1
same,Weight gain (% of control),"Pasteurella multocida; Table 5, percentage of uninfected controls, doses as in E44",84 % of control and 69 % of control
same,Cumulative Mortality on day 6,"Pasteurella multocida; Table 6, doses as in E56",1
same,Cumulative Mortality on day 7,"Pasteurella multocida; Table 6, doses as in E56",1
same,Cumulative Mortality on day 8,"Pasteurella multocida; Table 6, doses as in E56",1
same,Cumulative Mortality on day 9,"Pasteurella multocida; Table 6, doses as in E56",1
same,Cumulative Mortality on day 10,"Pasteurella multocida; Table 6, doses as in E56",1
same,Cumulative Mortality on day 11,"Pasteurella multocida; Table 6, doses as in E56",1
same,Cumulative Mortality on day 1,Pasteurella multocida; Table 6,0
same,Mortality from Coccidiosis,E. tenella,8/10 and 9/10
"Cc1cc(NS(=O)(=O)c2ccc(N)cc2)no1 [Sulphamethoxazole, sulphamethoxazole]",Size of zone in cm (×6 magnification),[1],0 cm
same,inhibition at 0.1 µg/mL,[2]; [7],16%
same,Size of zone in cm (×6 magnification),Escherichia coli CN 314,28 cm
same,Sulphamethoxazole M.I.C.,Staphylococcus aureus [3],1.0 µg/mL
same,Size of zone in cm (×6 magnification),Proteus vulgaris CN 329,36 cm
same,Size of zone in cm (×6 magnification),[4],32 cm
same,Size of zone in cm (×6 magnification),[5],26 cm
"COc1cc(Cc2cnc(N)nc2N)cc(OC)c1OC [Trimethoprim, 2,4-diamino-5-(3'4',5'-trimethoxybenzyl)pyrimidine]",Size of zone in cm (×6 magnification),[1],28 cm
same,Percentage of inhibition at 7 hrs.,[2],6 and 12
same,inhibition at 0.002 µg/mL,[2]; [7],10%
same,inhibition at 0.004 µg/mL,[2]; [7],8%
same,Cumulative Mortality on day 4,"Pasteurella multocida; Table 6, doses as in E56",8
same,Cumulative Mortality on day 6,"Pasteurella multocida; Table 6, doses as in E56",10
same,Cumulative Mortality on day 2,Pasteurella multocida; [8],4 and 2
same,Cumulative Mortality on day 3,Pasteurella multocida; [8],4 and 5
same,Cumulative Mortality on day 5,Pasteurella multocida; [8],10 and 8
same,Cumulative Mortality on day 1,Pasteurella multocida; Table 6,0
same,Size of zone in cm (×6 magnification),Escherichia coli CN 314,34 cm
same,Size of zone in cm (×6 magnification),Proteus vulgaris CN 329,19 cm
same,Size of zone in cm (×6 magnification),[4],0 cm
same,viability at 0.3 µg/mL,Staphylococcus aureus [6]; [9],> 100%
same,viability at 1 µg/mL,Staphylococcus aureus [6]; [9],> 100%
same,Percentage of inoculum viable at 24 hrs.,Staphylococcus aureus [6]; Trimethoprim 0.3 μg./ml,> 100%
same,Percentage of inoculum viable at 24 hrs.,Staphylococcus aureus [6]; Trimethoprim 1.0 μg./ml,> 100%
same,Size of zone in cm (×6 magnification),[5],21 cm
